Measured values from article PMC6838683, “Discovery of Human Signaling Systems: Pairing Peptides to G Protein-Coupled Receptors” (Cell, 2019).
Read-outs that look alike come from different tables or passages of the source. Residues, ends and D or L forms follow the SMILES beside them.

Legend:
[1] = target: T1, GPR1 (Homo sapiens, UniProt P46091); test: β-arrestin recruitment (PathHunter); assay type: cell-based; settings: receptor GPR1; mean, SEM and n (2-3); read-out: b-arrestin recruitment assays (PathHunter) pEC50 (converted)
T1 sequence (P46091 1-355): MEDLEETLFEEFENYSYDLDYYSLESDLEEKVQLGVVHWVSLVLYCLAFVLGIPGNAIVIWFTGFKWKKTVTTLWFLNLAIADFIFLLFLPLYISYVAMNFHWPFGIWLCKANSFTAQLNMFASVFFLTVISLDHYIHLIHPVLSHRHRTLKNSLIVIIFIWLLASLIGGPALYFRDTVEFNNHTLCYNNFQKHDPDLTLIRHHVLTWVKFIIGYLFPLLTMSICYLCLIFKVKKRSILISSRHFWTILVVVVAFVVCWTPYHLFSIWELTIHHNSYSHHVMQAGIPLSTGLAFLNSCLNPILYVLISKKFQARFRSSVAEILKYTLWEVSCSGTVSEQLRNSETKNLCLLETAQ
Experimental: PathHunter eXpress Assays (DiscoverX) were performed in 384-well format according to the manufacturer’s recommendations. GPR1 cells were incubated with peptides for 90 min and luminescence measured using an EnSpire 2300 Multimode plate reader (PerkinElmer).

[2] = target: T1, GPR1; test: β-arrestin recruitment (Tango), validation; assay type: cell-based; set-up: host or cells: HTLA cells (HEK293-derived)
[3] = tested on: 120 GPCR targets, including all available orphan receptors and 27 known class A peptide receptors; test: Peptide library screen, β-arrestin recruitment (Tango, fold change, 10 μM); assay type: cell-based, human; settings: for Active at: (activity in b-arrestin recruitment assays): Tango, receptor(s) at which the known library peptide was active, among its known GPCR target(s), validated pairings; for Confirmation of known target in Tango: repeat hitters of the peptide library screen, the value names the known receptor(s) confirmed in the β-arrestin recruitment (Tango) screen
Experimental: The peptide library was additionally screened against 120 GPCR targets in parallel, including all available orphan receptors and 27 known class A peptide receptors using the Tango assay platform ([Kroeze et al., 2015]). Briefly, HTLA cells (a HEK293 cell line stably expressing a tTA-dependent luciferase reporter and a β-arrestin2-TEV fusion gene) were plated 10,000 cells/well in poly-L-lysine–coated clear-bottom white 384-well plates in DMEM supplemented with 10% FBS, 100 U/ml penicillin and 100 μg/ml streptomycin, 2 μg/ml puromycin and 100 μg/ml hygromycin B. 24 hr later, cells were transfected with Tango GPCR constructs using the calcium phosphate method ([Jordan et al., 1996]). The next day, culture medium was changed to DMEM + 1% dFBS and 10 μM peptides were added for overnight stimulation. Bright-Glo solution (Promega) was incubated for 15–20 min at room temperature, and luminescence was counted using a Trilux luminescence counter (Wallac).

[4] = tested on: human GPCRs; set-up: method as in Guide to Pharmacology database; settings: max reported value, ref Guide to Pharmacology database, cited from earlier work
From the text: Supplement mmc1.xlsx, sheet "HumanGPCRLigands" | column: pKi_value; pKd_value; pEC50_value; pIC50_value

[5] = receptor GPR1, mean, SEM and n (2-3), read-out: b-arrestin recruitment assays (Tango) pEC50 (converted)
[6] = receptor PROKR1 (pkr1_human, Q8TCW9)
[7] = receptor PROKR2 (pkr2_human, Q8NFJ6)

Molecule: CC(C)C[C@H](NC(=O)[C@H](CCCNC(=N)N)NC(=O)[C@H](CC(=O)O)NC(=O)[C@H](CC(C)C)NC(=O)[C@@H]1CCCN1C(=O)[C@H](CO)NC(=O)CNC(=O)[C@H](Cc1ccccc1)NC(=O)CNC(=O)[C@H](CO)NC(=O)[C@H](Cc1ccccc1)NC(=O)[C@H](CO)NC(=O)[C@H](CCCNC(=N)N)NC(=O)[C@@H](N)CCCCN)C(=O)N[C@@H](CO)C(=O)N[C@@H](C)C(=O)NCC(=O)N[C@@H](CO)C(=O)N[C@H](C(=O)N[C@@H](CC(=O)O)C(=O)N[C@@H](Cc1c[nH]cn1)C(=O)N[C@@H](CCCCN)C(N)=O)C(C)C [141 resynthesized] (H-KRSFSGFGSPLDRLSAGSVDHK-NH2)
- EC50 [1]: 661 nM
- EC50 [2, 5]: 5010 nM

Molecule: CC[C@H](C)[C@H](NC(=O)[C@H](CCCNC(=N)N)NC(=O)[C@H](Cc1c[nH]cn1)NC(=O)[C@H](CO)NC(=O)[C@@H]1CCCN1C(=O)[C@H](CC(=O)O)NC(=O)[C@H](CC(C)C)NC(=O)[C@H](CC(N)=O)NC(=O)[C@H](CCC(N)=O)NC(=O)[C@H](CC(C)C)NC(=O)[C@H](CC(N)=O)NC(=O)[C@H](CCCCN)NC(=O)[C@@H](NC(=O)[C@@H](NC(=O)[C@H](CO)NC(=O)[C@H](CCSC)NC(=O)[C@H](CCCNC(=N)N)NC(=O)CNC(=O)[C@H](CO)NC(=O)[C@@H]1CCCN1C(=O)[C@H](C)NC(=O)[C@@H](N)CCCCN)[C@@H](C)CC)C(C)C)C(=O)N[C@@H](CO)C(=O)N[C@@H](CC(=O)O)C(=O)N[C@@H](CCCNC(=N)N)C(=O)N[C@@H](CC(=O)O)C(=O)N[C@@H](Cc1ccc(O)cc1)C(=O)N[C@@H](CCSC)C(=O)NCC(=O)N[C@@H](Cc1c[nH]c2ccccc12)C(=O)N[C@@H](CCSC)C(=O)N[C@@H](CC(=O)O)C(=O)N[C@@H](Cc1ccccc1)C(N)=O [194 original] (H-KAPSGRMSIVKNLQNLDPSHRISDRDYMGWMDF-NH2)
- EC50 [1]: 9.77 nM
- EC50 [2, 5]: 5250 nM

Molecule: CC[C@H](C)[C@H](NC(=O)[C@H](CCCNC(=N)N)NC(=O)[C@H](Cc1c[nH]cn1)NC(=O)[C@H](CO)NC(=O)[C@@H]1CCCN1C(=O)[C@H](CC(=O)O)NC(=O)[C@H](CC(C)C)NC(=O)[C@H](CC(N)=O)NC(=O)[C@H](CCC(N)=O)NC(=O)[C@H](CC(C)C)NC(=O)[C@H](CC(N)=O)NC(=O)[C@H](CCCCN)NC(=O)[C@@H](NC(=O)[C@@H](NC(=O)[C@H](CO)NC(=O)[C@H](CCSC)NC(=O)[C@H](CCCNC(=N)N)NC(=O)CNC(=O)[C@H](CO)NC(=O)[C@@H]1CCCN1C(=O)[C@H](C)NC(=O)[C@@H](N)CCCCN)[C@@H](C)CC)C(C)C)C(=O)N[C@@H](CO)C(=O)N[C@@H](CC(=O)O)C(=O)N[C@@H](CCCNC(=N)N)C(=O)N[C@@H](CC(=O)O)C(=O)N[C@@H](Cc1ccc(O)cc1)C(=O)N[C@@H](CCSC)C(=O)NCC(=O)N[C@@H](Cc1c[nH]c2ccccc12)C(=O)N[C@@H](CCSC)C(=O)N[C@@H](CC(=O)O)C(=O)N[C@@H](Cc1ccccc1)C(N)=O [194 resynthesized] (H-KAPSGRMSIVKNLQNLDPSHRISDRDYMGWMDF-NH2)
- EC50 [1]: 27.5 nM
- EC50 [2, 5]: 6610 nM

Molecule: CSCC[C@H](NC(=O)[C@@H](N)Cc1c[nH]c2ccccc12)C(=O)N[C@@H](CC(=O)O)C(=O)N[C@@H](Cc1ccccc1)C(N)=O [194.2 (Phoenix)]
- EC50 [1]: 0.0132 nM
- EC50 [2, 5]: 39.8 nM

Molecule: CC(C)C[C@H](NC(=O)[C@H](CCCNC(=N)N)NC(=O)[C@H](CC(=O)O)NC(=O)[C@H](CC(C)C)NC(=O)[C@@H]1CCCN1C(=O)[C@H](CO)NC(=O)CNC(=O)[C@H](Cc1ccccc1)NC(=O)CNC(=O)[C@H](CO)NC(=O)[C@H](Cc1ccccc1)NC(=O)[C@@H](N)CO)C(=O)N[C@@H](CO)C(=O)N[C@@H](C)C(=O)NCC(=O)N[C@@H](CO)C(=O)N[C@H](C(=O)N[C@@H](CC(=O)O)C(=O)N[C@@H](Cc1c[nH]cn1)C(=O)N[C@@H](CCCCN)C(N)=O)C(C)C [Peptide 141.1] (H-SFSGFGSPLDRLSAGSVDHK-NH2)
- EC50 [1]: 14100 nM
- EC50 [2, 5]: 14500 nM

Molecule: CC(C)C[C@H](NC(=O)[C@H](CCCNC(=N)N)NC(=O)[C@H](CC(=O)O)NC(=O)[C@H](CC(C)C)NC(=O)[C@@H]1CCCN1C(=O)[C@H](CO)NC(=O)CNC(=O)[C@H](Cc1ccccc1)NC(=O)CNC(=O)[C@H](CO)NC(=O)[C@H](Cc1ccccc1)NC(=O)[C@H](CO)NC(=O)[C@H](CCCNC(=N)N)NC(=O)[C@@H](N)CCCCN)C(=O)N[C@@H](CO)C(=O)N[C@@H](C)C(=O)NCC(=O)N[C@@H](CO)C(=O)N[C@H](C(=O)N[C@@H](CC(=O)O)C(=O)N[C@@H](Cc1c[nH]cn1)C(=O)N[C@@H](CCCCN)C(=O)NCC(=O)N[C@@H](CCCCN)C(=O)N[C@@H](CCC(N)=O)C(=O)O)C(C)C [Peptide 141.2] (H-KRSFSGFGSPLDRLSAGSVDHKGKQ-OH)
- EC50 [1]: 1170 nM
- EC50 [2, 5]: 2630 nM

Molecule: CC(C)C[C@H](NC(=O)[C@H](CCCNC(=N)N)NC(=O)[C@H](CC(=O)O)NC(=O)[C@H](CC(C)C)NC(=O)[C@@H]1CCCN1C(=O)[C@H](CO)NC(=O)CNC(=O)[C@H](Cc1ccccc1)NC(=O)CNC(=O)[C@H](CO)NC(=O)[C@H](Cc1ccccc1)NC(=O)[C@H](CO)NC(=O)[C@H](CCCNC(=N)N)NC(=O)[C@@H](N)CCCCN)C(=O)N[C@@H](CO)C(=O)N[C@@H](C)C(=O)NCC(=O)N[C@@H](CO)C(=O)N[C@H](C(=O)N[C@@H](CC(=O)O)C(=O)N[C@@H](Cc1c[nH]cn1)C(=O)N[C@@H](CCCCN)C(N)=O)C(C)C [Peptide 141] (H-KRSFSGFGSPLDRLSAGSVDHK-NH2)
- EC50 ([2]; HTLA cells transiently transfected, overnight stimulation, luciferase, mean ± SEM of 3-4 independent experiments in triplicate, read-out: pEC50, β-arrestin recruitment (Tango), GPR1 (converted)): 2510 nM

Molecule: AADHDVGSELPPEGVLGALLRV [Peptide 146]
- Active at: (activity in b-arrestin recruitment assays) [3]: GPR83

Molecule: CYFQNCPRG (disulfide) [Peptide 44]
- Active at: (activity in b-arrestin recruitment assays) [3]: V1a V1b V2 OT

Molecule: CYIQNCPLG (disulfide) [Peptide 45]
- Active at: (activity in b-arrestin recruitment assays) [3]: V1a V2 OT

Molecule: DEGPYRMEHFRWGSPPKD [Peptide 126]
- Active at: (activity in b-arrestin recruitment assays) [3]: MC4R

Molecule: FGGFTGARKSARKLANQ [Peptide 120]
- Active at: (activity in b-arrestin recruitment assays) [3]: NOP

Molecule: FRVDEEFQSPFASQSRGYFLFRPRN [Peptide 159]
- Active at: (activity in b-arrestin recruitment assays) [3]: NMUR1

Molecule: FVPIFTYGELQRMQEKERNKGQ [Peptide 145]
- Active at: (activity in b-arrestin recruitment assays) [3]: MLNR
- Confirmation of known target in Tango [3]: Motilin receptor

Molecule: ILQRGSGTAAVDFTKKDHTATWGRPFFLFRPRN [Peptide 195]
- Active at: (activity in b-arrestin recruitment assays) [3]: NMUR1, NMUR2
- Confirmation of known target in Tango [3]: NMUR1

Molecule: KRSFSGFGSPLDRLSAGSVDHK [141 original]
- b-arrestin recruitment assays (Tango) Emax (fold change) ([2]; receptor GPR1, mean, SEM and n (2-3)): 14.4 fold change

Molecule: SYSMEHFRWGKPV [Peptide 93]
- Active at: (activity in b-arrestin recruitment assays) [3]: MC4R

Molecule: VPNLPQRF [Peptide 29]
- Active at: (activity in b-arrestin recruitment assays) [3]: NPFF1

Molecule: WYKPAAGHSSYSVGRAAGLLSGL [Peptide 152]
- Active at: (activity in b-arrestin recruitment assays) [3]: NPBW1

Molecule: YGGFL [Peptide 14]
- Active at: (activity in b-arrestin recruitment assays) [3]: Inactive

Molecule: YGGFLRKYP [Peptide 46]
- Active at: (activity in b-arrestin recruitment assays) [3]: Kappa

Molecule: YGGFMTSEKSQTPLVTLFKNAIIKNAYKKGE [Peptide 182]
- Active at: (activity in b-arrestin recruitment assays) [3]: kappa, mu

Molecule: YVMGHFRWDRF [Peptide 74]
- Active at: (activity in b-arrestin recruitment assays) [3]: MC4R

B1: prokineticin-1 (protein, UniProt P58294 20-105, looked up)
Prokineticin-1: AVITGACERDVQCGAGTCCAISLWLRGLRMCTPLGREGEECHPGSHKVPFFRKRKHHTCPCLPNLLCSRFPDGRYRCSMDLKNINF
- pIC50_value [4, 6]: 7.6
- pIC50_value [4, 7]: 7.3

B2: prokineticin-2 (protein, UniProt Q9HC23 28-129, looked up)
Prokineticin-2: AVITGACDKDSQCGGGMCCAVSIWVKSIRICTPMGKLGDSCHPLTRKNNFGNGRQERRKRKRSKRKKEVPFFGRRMHHTCPCLPGLACLRTSFNRFICLAQK
- pIC50_value [4, 6]: 8.4
- pIC50_value [4, 7]: 8.2
